In patent US20230043863A1, “HETEROAROMATIC DERIVATIVES FOR USE AS REGULATOR, PREPARATION METHOD THEREFOR AND USE THEREOF” (JIANGSU HANSOH PHARMACEUTICAL GROUP CO., LTD., priority 2018, published 2023):

Tests used:
JAK1 = JAK1 (Homo sapiens, UniProt P23458); test: JAK kinase activity inhibition, TR-FRET (JAK1); assay type: biochemical; settings: TR-FRET kinase assay
Summary of the method: (§1)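 TR-FRET read (≈620 and 665 nm) after EDTA quench and 1-24 h antibody detection at RT. Kinase 0.1-20 nM, peptide substrate + ATP, 0.5-5 h RT reaction in HEPES 50-250 mM, MgCl2 5-20 mM. IC50 from 4-parameter fit vs DMSO and no-kinase controls.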

TYK2 = TYK2 (Homo sapiens, UniProt P29597); test: JAK kinase activity inhibition, TR-FRET (TYK2); assay type: biochemical; settings: TR-FRET kinase assay
Summary of the method: as §1

[1] = system: JAK-STAT signal pathway of U266 cells; test: Inhibition of cellular JAK-STAT signal pathway (STAT3 phosphorylation) in U266 cells; assay type: cell-based, human
Experimental: The objective of the test is to test the inhibitory activity of the compound on the cellular JAK-STAT signaling pathway.
U266 cell line was used in this experiment, by activating the JAK-STAT signaling pathway through INF-a stimulation, the inhibitory activity of the compound on its downstream STAT3 phosphorylation was detected, and the half inhibitory concentration IC50 of the compound on the JAK-STAT signaling pathway activity was obtained.
3-12 μL of U266 cell line was spread into the 384-well detection plate, and the number of cells in each well was 100-300 K, followed by addition of 2 μL of the compound solution serially diluted. The plate was incubated for 2 hours with shaking at 350 rpm at room temperature. After 2 hours, 2 μL of INF-a with a final concentration of 1000 U/mL was added. The plate was shaken at room temperature for 15 minutes. 2-5 μL (5×) LANCE Ultra Lysis Buffer 2 solution was added and the plate was shaken at room temperature for 2 hours. After 2 hours, 5 μL of LANCE Ultra Eu-labeled Anti-STAT3 Antibody (PerkinElmer) with a final concentration of 0.5 nM and LANCE Ultra ULight-labeled Anti-STAT3 Antibody (PerkinElmer) with a final concentration of 5 nM were added, and the plate was incubated overnight at room temperature. The fluorescence signal value at 665 nm of each well was measured with the microplate reader, and the inhibition rate was calculated from the fluorescence signal value. According to the inhibition rate of different concentrations, the IC50 of the compound was obtained by curve fitting.
The percentage inhibition data of the wells treated with the compound was calculated with the positive control wells (DMSO control wells) and negative control wells (no kinase added) on the plate {% inhibition rate=100-[(test compound value-negative control value)]/(Positive control value-negative control value)×100}. IC50 value was calculated by using GraphPad prism to fit the data of different concentrations and corresponding percentage inhibition rates to a 4-parameter non-linear logic formula.

[2] = Homo sapiens, U-266, INF-a 1000 U/mL stimulation

JAK1, sequence (P23458 whole entry): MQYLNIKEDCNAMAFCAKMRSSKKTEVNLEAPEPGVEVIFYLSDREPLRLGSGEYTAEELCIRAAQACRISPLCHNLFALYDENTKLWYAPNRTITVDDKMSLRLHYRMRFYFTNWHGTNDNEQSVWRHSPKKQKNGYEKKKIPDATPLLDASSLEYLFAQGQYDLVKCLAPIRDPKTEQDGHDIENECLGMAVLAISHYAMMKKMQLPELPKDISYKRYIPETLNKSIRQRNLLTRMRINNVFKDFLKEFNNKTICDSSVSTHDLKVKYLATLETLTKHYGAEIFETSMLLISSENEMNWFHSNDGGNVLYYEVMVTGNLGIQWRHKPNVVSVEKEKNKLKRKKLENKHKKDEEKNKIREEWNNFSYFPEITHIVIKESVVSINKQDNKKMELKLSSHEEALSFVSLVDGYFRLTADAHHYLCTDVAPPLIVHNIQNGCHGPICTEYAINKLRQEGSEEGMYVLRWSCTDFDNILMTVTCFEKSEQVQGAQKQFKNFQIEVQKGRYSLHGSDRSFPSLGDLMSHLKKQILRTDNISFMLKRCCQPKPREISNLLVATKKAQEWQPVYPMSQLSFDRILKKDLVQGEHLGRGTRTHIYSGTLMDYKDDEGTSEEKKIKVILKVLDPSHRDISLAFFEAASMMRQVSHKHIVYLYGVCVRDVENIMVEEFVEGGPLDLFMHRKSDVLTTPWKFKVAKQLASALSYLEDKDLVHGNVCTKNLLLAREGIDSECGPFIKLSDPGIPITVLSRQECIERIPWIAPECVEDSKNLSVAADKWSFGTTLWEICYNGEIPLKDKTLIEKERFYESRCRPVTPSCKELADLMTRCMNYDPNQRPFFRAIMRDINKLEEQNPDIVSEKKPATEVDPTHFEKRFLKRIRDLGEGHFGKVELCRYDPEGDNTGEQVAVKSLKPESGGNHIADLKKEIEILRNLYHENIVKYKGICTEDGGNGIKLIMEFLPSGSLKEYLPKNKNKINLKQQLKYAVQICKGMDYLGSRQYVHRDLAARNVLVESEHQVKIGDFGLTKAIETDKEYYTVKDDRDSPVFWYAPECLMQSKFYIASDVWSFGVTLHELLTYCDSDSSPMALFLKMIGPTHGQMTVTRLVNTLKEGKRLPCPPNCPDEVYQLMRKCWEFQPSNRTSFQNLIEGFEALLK
TYK2, sequence (P29597 whole entry): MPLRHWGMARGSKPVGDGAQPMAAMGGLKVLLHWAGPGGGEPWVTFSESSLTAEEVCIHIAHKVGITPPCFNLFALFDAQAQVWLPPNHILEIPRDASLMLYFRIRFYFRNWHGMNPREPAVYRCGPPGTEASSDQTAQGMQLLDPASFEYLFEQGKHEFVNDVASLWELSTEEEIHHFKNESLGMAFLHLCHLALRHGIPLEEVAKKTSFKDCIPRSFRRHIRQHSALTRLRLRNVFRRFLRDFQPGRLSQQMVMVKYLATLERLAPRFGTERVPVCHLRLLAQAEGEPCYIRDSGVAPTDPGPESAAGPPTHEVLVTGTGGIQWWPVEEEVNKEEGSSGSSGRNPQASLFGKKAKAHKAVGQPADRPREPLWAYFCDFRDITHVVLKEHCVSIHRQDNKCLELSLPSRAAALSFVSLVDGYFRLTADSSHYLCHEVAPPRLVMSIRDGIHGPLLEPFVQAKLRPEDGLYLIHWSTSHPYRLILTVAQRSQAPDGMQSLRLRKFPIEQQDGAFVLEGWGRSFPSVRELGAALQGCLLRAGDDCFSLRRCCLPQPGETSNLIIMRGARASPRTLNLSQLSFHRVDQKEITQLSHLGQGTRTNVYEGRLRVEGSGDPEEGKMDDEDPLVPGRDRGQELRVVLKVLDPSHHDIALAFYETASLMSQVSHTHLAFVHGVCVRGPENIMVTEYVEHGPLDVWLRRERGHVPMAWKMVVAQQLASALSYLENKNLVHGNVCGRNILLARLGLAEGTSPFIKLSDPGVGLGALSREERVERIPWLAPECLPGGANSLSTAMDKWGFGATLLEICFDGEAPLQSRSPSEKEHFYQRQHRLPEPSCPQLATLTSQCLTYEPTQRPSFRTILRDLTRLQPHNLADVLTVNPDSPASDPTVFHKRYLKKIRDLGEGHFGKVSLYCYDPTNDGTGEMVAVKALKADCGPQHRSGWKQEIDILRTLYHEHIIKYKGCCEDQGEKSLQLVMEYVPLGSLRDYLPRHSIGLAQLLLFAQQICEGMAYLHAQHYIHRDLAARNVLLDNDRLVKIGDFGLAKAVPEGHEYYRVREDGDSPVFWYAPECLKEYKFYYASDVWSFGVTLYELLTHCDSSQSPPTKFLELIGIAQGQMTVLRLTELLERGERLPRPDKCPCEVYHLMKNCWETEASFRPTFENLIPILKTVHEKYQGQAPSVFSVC

Row | SMILES | IC50 (JAK1) [nM] | IC50 (TYK2) [nM] | IC50 [1, 2] [nM] | IC50 ([1]; INF-a 1000 U/mL stimulation) [nM]
1 | Cc1cc(Nc2cc3ncccc3c(N(C)[C@@H]3C[C@H]4CC[C@@H](C3)N4CCC#N)n2)n[nH]1 [Embodiment 111, 3-((3-exo)-3-(methyl(7-((5-methyl-1H-pyrazol-3-yl)amino)-1,6-diazanaphthalen-5-yl)amino)-8-azabicyclo[3.2.1]oct-8-yl)propionitrile] | 5.69 | 1.63 | 2.93 | –
2 | Cc1cc(Nc2nc(N[C@@H]3C[C@H]4CCC[C@@H](C3)N4CC(=O)N(C)C)nc3sccc23)n[nH]1 [Embodiment 270, N,N-dimethyl-2-((3-exo)-3-((4-((5-methyl-1H-pyrazol-3-yl)amino)thieno[2,3-d]pyrimidin-2-yl)amino)-9-azabicyclo[3.3.1]non-9-yl)acetamide] | 1.22 | 5.78 | 14.3 | –
3 | Cc1cc(Nc2nc(N[C@@H]3C[C@H]4CCC[C@@H](C3)N4S(=O)(=O)c3cccnc3)nc3sccc23)n[nH]1 [Embodiment 268] | 0.21 | 0.19 | 42.9 | –
4 | Cc1cc(Nc2nc(O[C@@H]3C[C@H]4CC[C@@H](C3)N4CCC#N)nc3sccc23)n[nH]1 [Embodiment 279, 3-((3-exo)-3-((4-((5-methyl-1H-pyrazol-3-yl)amino)thieno[2,3-d]pyrimidin-2-yl)oxo)-8-azabicyclo[3.2.1]oct-8-yl)propionitrile] | 0.24 | 0.66 | 2.2 | –
5 | CCNCC(=O)N1[C@@H]2CC[C@H]1C[C@H](Nc1nc(Nc3cc(C)[nH]n3)c3ccsc3n1)C2 [Embodiment 255, 2-(ethylamino)-1-((3-exo)-3-((4-((5-methyl-1H-pyrazol-3-yl)amino)thieno[2,3-d]pyrimidin-2-yl)amino)-8-azabicyclo[3.2.1]oct-8-yl)ethane-1-one] | 1.17 | 2.38 | 8.67 | –
6 | CN(c1nc(Nc2cc(CO)[nH]n2)c2ccc(Cl)cc2n1)[C@@H]1C[C@H]2CCC[C@@H](C1)N2CCC#N [Embodiment 235, 3-((3-exo)-3-((7-chloro-4-((5-(hydroxymethyl)-1H-pyrazol-3-yl)amino)quinazolin-2-yl)(methyl)amino)-9-azabicyclo[3.3.1]non-9-yl)propionitrile] | 3.33 | 2.71 | 44.4 | –
7 | Cc1cc(Nc2nc(N[C@@H]3C[C@H]4CCC[C@@H](C3)N4C(=O)[C@H]3COCCN3)nc3sccc23)n[nH]1 [Embodiment 250, ((3-exo)-3-((4-((5-methyl-1H-pyrazol-3-yl)amino)thieno[2,3-d]pyrimidin-2-yl)amino)-9-azabicyclo[3.3.1]non-9-yl)((R)-morpholine-3-yl)methanone] | 0.04 | 0.07 | 7.3 | –
8 | OCc1cnc(Nc2cc3ncccc3c(N[C@@H]3C[C@H]4CC[C@@H](C3)N4CCF)n2)s1 [Embodiment 167, (2-((5-(((3-exo)-8-(2-fluoroethyl)-8-azabicyclo[3.2.1]oct-3-yl)amino)-1,6-diazanaphthalen-7-yl)amino)thiazol-5-yl)methanol] | 2.55 | 7.28 | 14.8 | –
9 | Cc1cc(Nc2nc(N[C@@H]3C[C@H]4CC[C@@H](C3)N4CCC#N)c3cccn3n2)n[nH]1 [Embodiment 72, 3-((3-exo)-3-((2-((5-methyl-1H-pyrazol-3-yl)amino)pyrrolo[2,1-f][1,2,4]triazin-4-yl)amino)-8-azabicyclo[3.2.1]oct-8-yl)propionitrile] | 4.32 | 16 | 5.39 | –
10 | Cc1cc(Nc2nc(N(C)[C@@H]3C[C@H]4CC[C@@H](C3)N4C(=O)CN3CCOCC3)nc3sccc23)n[nH]1 [Embodiment 245, 1-((3-exo)-3-(methyl(4-((5-methyl-1H-pyrazol-3-yl)amino)thieno[2,3-d]pyrimidin-2-yl)amino)-8-azabicyclo[3.2.1]oct-8-yl)-2-morpholinoethane-1-one] | 2.77 | 2.76 | – | 16.7
11 | Cc1cc2nc(N[C@@H]3C[C@H]4CCC[C@@H](C3)N4CCC#N)nc(Nc3cc(CO)[nH]n3)c2s1 [Embodiment 294] | 0.64 | 0.23 | 15.3 | –
12 | Cc1cc(Nc2nc(N[C@@H]3C[C@H]4CCC[C@@H](C3)N4C(=O)CN3CCN(C)CC3)nc3sccc23)n[nH]1 [Embodiment 258, 1-((3-exo)-3-((4-((5-methyl-1H-pyrazol-3-yl)amino)thieno[2,3-d]pyrimidin-2-yl)amino)-9-azabicyclo[3.3.1]non-9-yl)-2-(4-methylpiperazin-1-yl)ethane-1-one] | 0.27 | 0.61 | 32.7 | –
